ChEMBL document CHEMBL3885881, “DrugMatrix”

Species: Rattus norvegicus
Assay: DrugMatrix - Regimen: Daily Repeat
Type: toxicity, organism-based, Sprague-Dawley
Parameters: regimen Daily Repeat, gender Male, age 6-8 weeks
Conditions: in vivo, sc, route subcutaneous, […]; for ABSOLUTE BASOPHIL / ABSOLUTE EOSINOPHIL / ABSOLUTE LYMPHOCYTE / ABSOLUTE MONOCYTE / ABSOLUTE SEGMENTED NEUTROPHIL / BASOPHIL / EOSINOPHIL / ERYTHROCYTE COUNT / HEMATOCRIT / HEMOGLOBIN / LEUKOCYTE COUNT / LYMPHOCYTE / MEAN CORPUSCULAR HEMOGLOBIN / MEAN CORPUSCULAR HEMOGLOBIN CONCENTRATION / MEAN CORPUSCULAR VOLUME / MONOCYTE / NEUTROPHIL / NUCLEATED RED BLOOD CELLS / PLATELET COUNT: tissue Blood; for ALANINE AMINOTRANSFERASE / ALBUMIN / ALKALINE PHOSPHATASE / ASPARTATE AMINOTRANSFERASE / BLOOD UREA NITROGEN / CARBON DIOXIDE / CHLORIDE / CHOLESTEROL / CREATINE PHOSPHOKINASE / CREATININE / GLUCOSE / LACTATE DEHYDROGENASE / LIPASE / PHOSPHORUS / POTASSIUM / SODIUM / TOTAL BILIRUBIN / TOTAL PROTEIN / URIC ACID: tissue Plasma
[1] = 0 mg/kg, 72 h, dose level Control, time 3 day
[2] = 0 mg/kg, 120 h, dose level Control, time 5 day
[3] = 0.8 mg/kg, 72 h, dose level Low, time 3 day

Oc1c(Cl)cc(Cl)c(Cl)c1Cc1c(O)c(Cl)cc(Cl)c1Cl [HEXACHLOROPHENE]
ABSOLUTE BASOPHIL [1]: 0 CELLS/uL
ABSOLUTE EOSINOPHIL [1]: 92.33 CELLS/uL
ABSOLUTE LYMPHOCYTE [1]: 12247.5 CELLS/uL
ABSOLUTE MONOCYTE [1]: 389.67 CELLS/uL
ABSOLUTE SEGMENTED NEUTROPHIL [1]: 1320.5 CELLS/uL
BASOPHIL [1]: 0%
EOSINOPHIL [1]: 0.67%
ERYTHROCYTE COUNT [1]: 5.45 x10E6/uL
HEMATOCRIT [1]: 34.85%
HEMOGLOBIN [1]: 12.97 G/DL
LEUKOCYTE COUNT [1]: 14.05 x10E3/uL
LYMPHOCYTE [1]: 87.33%
MEAN CORPUSCULAR HEMOGLOBIN [1]: 23.78 pg
MEAN CORPUSCULAR HEMOGLOBIN CONCENTRATION [1]: 37.22 G/DL
MEAN CORPUSCULAR VOLUME [1]: 63.93 fL
MONOCYTE [1]: 2.67%
NEUTROPHIL [1]: 9.33%
NUCLEATED RED BLOOD CELLS [1]: 0 /100WBC
PLATELET COUNT [1]: 1174 x10E3/uL
ALANINE AMINOTRANSFERASE [1]: 48.83 u/L
ALBUMIN [1]: 4.23 G/DL
ALKALINE PHOSPHATASE [1]: 351.5 u/L
ASPARTATE AMINOTRANSFERASE [1]: 90 u/L
BLOOD UREA NITROGEN [1]: 15.33 mg/dL
CARBON DIOXIDE [1]: 23 mmol/L
CHLORIDE [1]: 103.5 MEQ/L
CHOLESTEROL [1]: 70.5 mg/dL
CREATINE PHOSPHOKINASE [1]: 651.83 u/L
CREATININE [1]: 0.22 mg/dL
GLUCOSE [1]: 180.67 mg/dL
LACTATE DEHYDROGENASE [1]: 165 u/L
LIPASE [1]: 9.33 u/L
PHOSPHORUS [1]: 12.03 mg/dL
POTASSIUM [1]: 6.17 MEQ/L
SODIUM [1]: 142.62 MEQ/L
TOTAL BILIRUBIN [1]: 0.2 mg/dL
TOTAL PROTEIN [1]: 5.73 G/DL
URIC ACID [1]: 1.77 mg/dL
ABSOLUTE BASOPHIL [2]: 0 CELLS/uL
ABSOLUTE EOSINOPHIL [2]: 0 CELLS/uL
ABSOLUTE LYMPHOCYTE [2]: 12736.67 CELLS/uL
ABSOLUTE MONOCYTE [2]: 253.5 CELLS/uL
ABSOLUTE SEGMENTED NEUTROPHIL [2]: 1193.17 CELLS/uL
BASOPHIL [2]: 0%
EOSINOPHIL [2]: 0%
ERYTHROCYTE COUNT [2]: 5.72 x10E6/uL
HEMATOCRIT [2]: 36.05%
HEMOGLOBIN [2]: 13.62 G/DL
LEUKOCYTE COUNT [2]: 14.18 x10E3/uL
LYMPHOCYTE [2]: 89.33%
MEAN CORPUSCULAR HEMOGLOBIN [2]: 23.83 pg
MEAN CORPUSCULAR HEMOGLOBIN CONCENTRATION [2]: 37.8 G/DL
MEAN CORPUSCULAR VOLUME [2]: 63.05 fL
MONOCYTE [2]: 1.83%
NEUTROPHIL [2]: 8.83%
NUCLEATED RED BLOOD CELLS [2]: 0 /100WBC
PLATELET COUNT [2]: 1322.17 x10E3/uL
ALANINE AMINOTRANSFERASE [2]: 48.83 u/L
ALBUMIN [2]: 4.27 G/DL
ALKALINE PHOSPHATASE [2]: 295.17 u/L
ASPARTATE AMINOTRANSFERASE [2]: 75.83 u/L
BLOOD UREA NITROGEN [2]: 15.5 mg/dL
CARBON DIOXIDE [2]: 30.5 mmol/L
CHLORIDE [2]: 102.33 MEQ/L
CHOLESTEROL [2]: 76.17 mg/dL
CREATINE PHOSPHOKINASE [2]: 205.5 u/L
CREATININE [2]: 0.2 mg/dL
GLUCOSE [2]: 149.67 mg/dL
LACTATE DEHYDROGENASE [2]: 124.5 u/L
LIPASE [2]: 10 u/L
PHOSPHORUS [2]: 10.93 mg/dL
POTASSIUM [2]: 6.59 MEQ/L
SODIUM [2]: 143.1 MEQ/L
TOTAL BILIRUBIN [2]: 0.2 mg/dL
TOTAL PROTEIN [2]: 6.05 G/DL
URIC ACID [2]: 1.45 mg/dL
ABSOLUTE BASOPHIL [3]: 0 CELLS/uL
ABSOLUTE EOSINOPHIL [3]: 0 CELLS/uL
ABSOLUTE LYMPHOCYTE [3]: 12277.33 CELLS/uL
ABSOLUTE MONOCYTE [3]: 275.33 CELLS/uL
ABSOLUTE SEGMENTED NEUTROPHIL [3]: 1214 CELLS/uL
BASOPHIL [3]: 0%
EOSINOPHIL [3]: 0%
ERYTHROCYTE COUNT [3]: 5.64 x10E6/uL
HEMATOCRIT [3]: 34.87%
HEMOGLOBIN [3]: 13.13 G/DL
LEUKOCYTE COUNT [3]: 13.77 x10E3/uL
LYMPHOCYTE [3]: 89.33%
MEAN CORPUSCULAR HEMOGLOBIN [3]: 23.3 pg
MEAN CORPUSCULAR HEMOGLOBIN CONCENTRATION [3]: 37.67 G/DL
MEAN CORPUSCULAR VOLUME [3]: 61.83 fL
MONOCYTE [3]: 2%
NEUTROPHIL [3]: 8.67%
NUCLEATED RED BLOOD CELLS [3]: 0 /100WBC
PLATELET COUNT [3]: 1307.67 x10E3/uL
ALANINE AMINOTRANSFERASE [3]: 41.67 u/L
ALBUMIN [3]: 4.47 G/DL
ALKALINE PHOSPHATASE [3]: 339.67 u/L
ASPARTATE AMINOTRANSFERASE [3]: 84 u/L
BLOOD UREA NITROGEN [3]: 18 mg/dL
CARBON DIOXIDE [3]: 24.67 mmol/L
CHLORIDE [3]: 102.67 MEQ/L
CHOLESTEROL [3]: 79.67 mg/dL
CREATINE PHOSPHOKINASE [3]: 217.33 u/L
CREATININE [3]: 0.21 mg/dL
GLUCOSE [3]: 142.33 mg/dL
LACTATE DEHYDROGENASE [3]: 343.67 u/L
LIPASE [3]: 10 u/L
PHOSPHORUS [3]: 13.23 mg/dL
POTASSIUM [3]: 6.86 MEQ/L
SODIUM [3]: 144.73 MEQ/L
TOTAL BILIRUBIN [3]: 0.23 mg/dL
TOTAL PROTEIN [3]: 6 G/DL
URIC ACID [3]: 2 mg/dL
